Entries after “also recorded” stand apart in the source; their conditions may differ. Like-named read-outs stand apart in the source and are kept apart here.
Columns and labels:
BK Virus [1] = assay: BK virus viral neutralization assay (pre-incubation of SnPP with BK virus for 1 hour prior to infection), qPCR; assay type: cell-based, strain Gardner; conditions: for EC50 / EC90 / SI50 / SI90: experiment 21-bk2-004; for EC50 / EC90: Secondary (Neutralization, pre-incubation of virus), BK Virus Gardner in HFF, qPCR (DNA); for SI50 / SI90: Secondary (Neutralization); for SI50: CC50/EC50; for SI90: CC50/EC90
[2] = Cellular viability by CellTiter-Glo in the BK virus assays; conditions: human
HFF cells = assay: as above
BK Virus [3] = assay: BK virus standard qPCR-based antiviral assay (treatment with SnPP at the time of infection; primary and secondary); assay type: cell-based, strain Gardner; conditions: for SI50: CC50/EC50; for SI90: CC50/EC90; for Activity: BK
enveloped viruses = conditions: in vitro; Neris et al. 2018; cited from earlier work
[4] = tested on: non-enveloped polio virus; conditions: in vitro; Neris et al. 2018; cited from earlier work
CMV = CMV primary antiviral assay; assay type: cell-based
Adenovirus (Adv) = assay: AdV primary antiviral assay; assay type: cell-based
JC virus [5] = assay: JC virus qPCR antiviral assay in COS7 cells (primary/standard); assay type: cell-based, 1-4 strain; conditions: for Activity / EC50 / EC90 / SI50: JC; for Activity: Non-enveloped; for SI50: CC50/EC50
Description: (§1) Primary evaluation of compounds against JC virus were also performed by methods similar to those for BK virus primary assays but were done in COS7 cells and utilized the 1-4 strain of JCV in COS7 cells. Viral DNA was quantified using primers 5′-[…]-3′ and 5′-[…]-3′ and probe 5′-6-FAM-[…]-TAMRA-3 together with the plasmid pMP508 to provide a standard curve for absolute quantification. Secondary assays against JCV were also performed in COS7 cells by methods similar to those for BK virus to identify compounds that inhibited adsorption or penetration of the virus. • EC50—compound concentration that reduces viral replication by 50% • EC90—compound concentration that reduces viral replication by 90% • CC50—compound concentration that reduces cell viability by 50% • SI50—CC50/EC50 • SI90—CC50/EC90

[6] = in vivo
JC virus [7] = assay: JC virus neutralization assay (pre-incubation of virus with RBT-9) in COS7 cells; assay type: cell-based, 1-4 strain
Description: The present inventors used assays to determine the antiviral activity against various pathogens, including particularly the BK virus. Two conditions were investigated: 1) standard qPCR-based antiviral assay—treatment with SnPP at the time of infection and 2) viral neutralization—pre-incubation of SnPP with BK virus for 1 hour prior to infection. SnPP was tested at concentrations up to 100 μM. Human foreskin fibroblast (HFF) cells were used as the host cell. Viral activity was assessed by real time qPCR and cellular viability was determined by CellTiter-Glo.
as §1

HPV (HPV11) = assay: HPV primary antiviral assay; assay type: cell-based, Human Papilloma Virus
[8] = tested on: acute kidney injury (AKI); conditions: animals; given prior to insult; cited from earlier work
[9] = experiment 21-bk2-003, Primary (Standard), HFF, CellTiter-Glo
[10] = experiment 21-bk2-004, Secondary (Neutralization), HFF, CellTiter-Glo
[11] = experiment 21-bk2-001, Secondary
[12] = experiment 21-bk2-003, Primary (Standard)

Nc1ccn(C[C@@H](CO)OCP(=O)(O)O)c(=O)n1 [Cidofovir, reference compound]
EC50 (BK Virus [1]; Betapolyomavirus hominis): > 100 µM
EC90 (BK Virus [1]; Betapolyomavirus hominis): > 100 µM
SI50 (BK Virus [1]): 1
SI90 (BK Virus [1]): 1
CC50 [2]: > 100 µM
CC50 ([2]; CC50, experiment 20-bk-007, Primary, HFF, CellTiter-Glo): > 150 µM
CC50 (HFF cells; [9]): > 100 µM
CC50 (HFF cells; [10]): > 100 µM
EC90 (BK Virus [3]; Betapolyomavirus hominis, experiment 20-bk-007, Primary, BK Virus Gardner in HFF, qPCR (DNA)): 117 µM
EC50 (BK Virus [3]; Betapolyomavirus hominis, experiment 20-bk-007, Primary, BK Virus Gardner in HFF, qPCR (DNA), read-out: EC50): 6.28 µM
EC90 (BK Virus [3]; Betapolyomavirus hominis, experiment 21-bk2-001, Secondary, BK Virus Gardner in HFF, qPCR (DNA)): 10.7 µM
EC50 (BK Virus [3]; Betapolyomavirus hominis, experiment 21-bk2-001, Secondary, BK Virus Gardner in HFF, qPCR (DNA), read-out: EC50): 0.72 µM
EC90 (BK Virus [3]; Betapolyomavirus hominis, experiment 21-bk2-003, Primary (Standard), BK Virus Gardner in HFF, qPCR (DNA)): 17.9 µM
EC50 (BK Virus [3]; Betapolyomavirus hominis, experiment 21-bk2-003, Primary (Standard), BK Virus Gardner in HFF, qPCR (DNA), read-out: EC50): 0.13 µM
SI50 (BK Virus [3]; experiment 20-bk-007, Primary): >24
SI90 (BK Virus [3]; experiment 20-bk-007, Primary): >1
SI50 (BK Virus [3]; [11]): >139
SI90 (BK Virus [3]; [11]): >9
SI50 (BK Virus [3]; [12]): >769
SI90 (BK Virus [3]; [12]): >6

C=Cc1c(C)c2cc3[nH]c(cc4nc(cc5nc(cc1[nH]2)C(C)=C5CCC(=O)[O-])C(CCC(=O)[O-])=C4C)c(C)c3C=C.[Co+2] [Cobalt protoporphyrin, Co-protoporphyrin IX, reference compound]
antiviral activity against enveloped viruses (enveloped viruses): broad antiviral activity
activity against polio virus [4]: no activity

C=CC1=C(C)c2cc3[n-]c(cc4[n-]c(cc5nc(cc1n2)C(C)=C5C=C)c(C)c4CCC(=O)O)c(CCC(=O)O)c3C.[Sn+2] [SnPP, Stannous protoporphyrin]
Activity (BK Virus [1]; BK, Secondary (Neutralization) (21-bk2-004)): MODERATE
SI50 (BK Virus [1]): 15
SI90 (BK Virus [1]): 3
EC50 (BK Virus [1]): 5.4 µM
EC90 (BK Virus [1]): 32.9 µM
concentration not adversely affecting host cell viability, times higher than effective concentration (HFF cells; CC50 average versus effective concentration, BK virus assays): 16.5 times
CC50 (HFF cells; experiment 20-bk-007, Primary, HFF, CellTiter-Glo): 62.3 µM
CC50 (HFF cells; experiment 21-bk2-001, Secondary, HFF, CellTiter-Glo): 95.8 µM
CC50 (HFF cells; [9]): 82.7 µM
CC50 (HFF cells; [10]): 82.7 µM
CC50 (HFF cells; read-out: 50% cytotoxic concentration (CC50), average, averaged in the in vitro studies, host cell viability): 89.2 µM
EC50 (CMV): > 6 µM
EC90 (CMV): > 6 µM
SI50 (CMV; CC50/EC50): <3
Activity (CMV; Enveloped): NONE
inactivating activity against Adenovirus (in words) (Adenovirus (Adv)): not found; also recorded: Minimal to no activity
Activity (Adenovirus (Adv); AdV, Non-enveloped, Primary): NONE
EC50 (Adenovirus (Adv); AdV, Primary): > 30 µM
EC90 (Adenovirus (Adv); AdV, Primary): > 30 µM
SI50 (Adenovirus (Adv); AdV, Primary, CC50/EC50): <1
inactivating activity against JC virus (in words) (JC virus [5]): moderate inactivating activity
Activity (JC virus [5]; Primary): MODERATE
Activity (JC virus [5]; Primary (Standard)): MODERATE
EC50 (JC virus [5]; Primary): 5.38 µM
EC90 (JC virus [5]; Primary): > 30 µM
EC50 (JC virus [5]; Primary (Standard)): 9.93 µM
EC90 (JC virus [5]; Primary (Standard)): 63.1 µM
SI50 (JC virus [5]; Primary (Standard)): 7
SI50 (JC virus [5]; Primary): 19
tolerability [6]: well tolerated
antiviral activity against enveloped viruses (enveloped viruses): broad antiviral activity
Activity (JC virus [7]; Non-enveloped, Secondary (Neutralization, pre-incubation of virus with RBT-9)): MINIMAL
EC50 (JC virus [7]; Secondary (Neutralization)): 18.9 µM
EC90 (JC virus [7]; Secondary (Neutralization)): > 20 µM
SI50 (JC virus [7]; Secondary (Neutralization), CC50/EC50): 4
activity against polio virus [4]: no activity
Activity (BK Virus [3]; Primary (20-bk-007)): MODERATE
Activity (BK Virus [3]; Primary (Standard) (21-bk2-003)): MODERATE
Activity (BK Virus [3]; Secondary (21-bk2-001)): HIGH
EC50 (BK Virus [3]; averaged in 2 independently run standard qPCR assays, BK virus, read-out: 50% effective concentration (EC50), average): 5.5 µM
antiviral / inactivating activity against BK virus (in words) (BK Virus [3]; both treatment conditions): broad inactivating activity; also recorded: moderate antiviral activity; also recorded: most significant activity
EC90 (BK Virus [3]; experiment 20-bk-007, Primary, BK Virus Gardner in HFF, qPCR (DNA)): 26.6 µM
EC50 (BK Virus [3]; experiment 20-bk-007, Primary, BK Virus Gardner in HFF, qPCR (DNA), read-out: EC50): 8.08 µM
SI50 (BK Virus [3]; experiment 20-bk-007, Primary): 8
SI90 (BK Virus [3]; experiment 20-bk-007, Primary): 2
EC90 (BK Virus [3]; experiment 21-bk2-001, Secondary, BK Virus Gardner in HFF, qPCR (DNA)): 30.1 µM
EC50 (BK Virus [3]; experiment 21-bk2-001, Secondary, BK Virus Gardner in HFF, qPCR (DNA), read-out: EC50): 2.4 µM
SI50 (BK Virus [3]; [11]): 40
SI90 (BK Virus [3]; [11]): 3
EC90 (BK Virus [3]; experiment 21-bk2-003, Primary (Standard), BK Virus Gardner in HFF, qPCR (DNA)): 81.8 µM
EC50 (BK Virus [3]; experiment 21-bk2-003, Primary (Standard), BK Virus Gardner in HFF, qPCR (DNA), read-out: EC50): 8.6 µM
SI50 (BK Virus [3]; [12]): 10
SI90 (BK Virus [3]; [12]): 1
inactivating activity against HPV (in words) (HPV (HPV11)): not found; also recorded: Minimal to no activity
Activity (HPV (HPV11); HPV (HPV11), Non-enveloped, Primary): MINIMAL
EC50 (HPV (HPV11); HPV (HPV11), Primary): 23.4 µM
EC90 (HPV (HPV11); HPV (HPV11), Primary): > 30 µM
SI50 (HPV (HPV11); HPV (HPV11), Primary, CC50/EC50): 5
protection against acute kidney injury (AKI) [8]: protective
